Reference: ChEMBL document CHEMBL4219188, “Design, synthesis, neuroprotective, antibacterial activities and docking studies of novel thieno[2,3-d]pyrimidine-alkyne Mannich base and oxadiazole hybrids” (Bioorg Med Chem Lett, 2018)
≈ marks a conversion by molar mass, not a printed value.

Experiments:
Pseudomonas aeruginosa [1] = assay: Antibacterial activity against Pseudomonas aeruginosa after 24 hrs by UV-vis spectrophotometric method; assay type: functional
[2] = Cytotoxicity against rat PC12 cells assessed as cell viability at CC50 after 24 hrs by MTT assay relative to control; assay type: cell-based, PC-12; conditions: read-out: Activity
[3] = Cytotoxicity against rat PC12 cells assessed as cell viability at MNTC after 24 hrs by MTT assay relative to control; assay type: cell-based, PC-12; conditions: read-out: Activity
Staphylococcus aureus [4] = assay: Antibacterial activity against Staphylococcus aureus after 24 hrs by UV-vis spectrophotometric method; assay type: functional
Staphylococcus aureus [5] = assay: Antibacterial activity against Staphylococcus aureus assessed as diameter of inhibition zone measured after 24 hrs by agar well diffusion method; assay type: functional
PC-12 [6] = assay: Neuroprotective activity against H2O2-induced cytotoxicity in rat PC12 cells assessed as cell viability at EC50 pretreated for 24 hrs followed by H2O2 addition by MTT assay relative to control; assay type: functional
Escherichia coli [7] = assay: Antibacterial activity against Escherichia coli assessed as diameter of inhibition zone measured after 24 hrs by agar well diffusion method; assay type: functional
Escherichia coli [8] = assay: Antibacterial activity against Escherichia coli after 24 hrs by UV-vis spectrophotometric method; assay type: functional
PC-12 [9] = assay: Neuroprotective activity against H2O2-induced cytotoxicity in rat PC12 cells assessed as increase in cell viability pretreated for 24 hrs followed by H2O2 addition by MTT assay; assay type: functional, cell-based
Pseudomonas aeruginosa [10] = assay: Antibacterial activity against Pseudomonas aeruginosa assessed as diameter of inhibition zone measured after 24 hrs by agar well diffusion method; assay type: functional
Bacillus subtilis [11] = assay: Antibacterial activity against Bacillus subtilis assessed as diameter of inhibition zone measured after 24 hrs by agar well diffusion method; assay type: functional
[12] = Cytotoxicity against rat PC12 cells after 24 hrs by MTT assay; assay type: cell-based, PC-12; conditions: for MNTC at 24 h: read-out: MNCC
Bacillus subtilis [13] = assay: Antibacterial activity against Bacillus subtilis after 24 hrs by UV-vis spectrophotometric method; assay type: functional

Compound	MIC (Pseudomonas aeruginosa [1])	viability at 24 h [2]	viability at 24 h [3]	MIC (Staphylococcus aureus [4])	diameter of the inhibition zone (DIZ) (Staphylococcus aureus [5])	Activity (PC-12 [6])	diameter of the inhibition zone (DIZ) (Escherichia coli [7])	MIC (Escherichia coli [8])	Activity (PC-12 [9])	EC50 (PC-12 [9])	diameter of the inhibition zone (DIZ) (Pseudomonas aeruginosa [10])	diameter of the inhibition zone (DIZ) (Bacillus subtilis [11])	CC50 at 24 h [12]	MNTC at 24 h [12]	MIC (Bacillus subtilis [13])
COc1cccc(N2CCN(CC#CCOC(=O)c3sc4ncnc(N5CCCCC5)c4c3C)CC2)c1	0.0842 µg/mL (≈ 0.162 µM)	51%	98.2%	0.0244 µg/mL (≈ 0.047 µM)	10 mm	75.08%	13 mm	0.0384 µg/mL (≈ 0.0739 µM)	Dose-dependent effect	40.4 µg/mL (≈ 77.8 µM)	14 mm	13 mm	144 µg/mL (≈ 278 µM)	96 µg/mL	0.521 µg/mL (≈ 1 µM)
COc1ccc(-c2nnc(-c3sc4ncnc(N5CCOCC5)c4c3C)o2)cc1	0.044 µg/mL (≈ 0.107 µM)	51.9%	98.3%	0.0132 µg/mL (≈ 0.0322 µM)	12 mm	75.15%	12 mm	0.012 µg/mL (≈ 0.0293 µM)	Dose-dependent effect	28.2 µg/mL (≈ 68.8 µM)	16 mm	13 mm	140 µg/mL (≈ 342 µM)	120 µg/mL	0.0112 µg/mL (≈ 0.0274 µM)
COc1cccc(N2CCN(CC#CCOC(=O)c3sc4ncnc(N5CCOCC5)c4c3C)CC2)c1	0.0124 µg/mL (≈ 0.0238 µM)	50%	98.1%	0.0311 µg/mL (≈ 0.0596 µM)	12 mm	76.78%	14 mm	0.501 µg/mL (≈ 0.96 µM)	Dose-dependent effect	38.4 µg/mL (≈ 73.6 µM)	14 mm	16 mm	161 µg/mL (≈ 308 µM)	114 µg/mL	0.012 µg/mL (≈ 0.023 µM)
Cc1c(C(=O)OCC#CCN2CCN(c3ccc(Br)cc3C#N)CC2)sc2ncnc(N3CCOCC3)c12	0.0128 µg/mL (≈ 0.0215 µM)	49%	99.6%	0.526 µg/mL (≈ 0.883 µM)	10 mm	75.44%	13 mm	0.0324 µg/mL (≈ 0.0544 µM)	Dose-dependent effect	32.3 µg/mL (≈ 54.2 µM)	12 mm	12 mm	122 µg/mL (≈ 205 µM)	100 µg/mL	0.0628 µg/mL (≈ 0.105 µM)
Cc1c(-c2nnc(-c3ccccc3)o2)sc2ncnc(N3CCOCC3)c12	0.0186 µg/mL (≈ 0.049 µM)	50.4%	99.5%	0.0412 µg/mL (≈ 0.109 µM)	16 mm	76.18%	16 mm	0.0211 µg/mL (≈ 0.0556 µM)	Dose-dependent effect	10.6 µg/mL (≈ 27.9 µM)	11 mm	12 mm	200 µg/mL (≈ 527 µM)	160 µg/mL	0.0366 µg/mL (≈ 0.0965 µM)
Cc1ccc(C#N)c(N2CCN(CC#CCOC(=O)c3sc4ncnc(N5CCCCC5)c4c3C)CC2)c1	0.0624 µg/mL (≈ 0.118 µM)	49%	98.2%	0.122 µg/mL (≈ 0.231 µM)	13 mm	76.04%	15 mm	0.0144 µg/mL (≈ 0.0272 µM)	Dose-dependent effect	38.2 µg/mL (≈ 72.2 µM)	14 mm	13 mm	114 µg/mL (≈ 216 µM)	96 µg/mL	0.0312 µg/mL (≈ 0.059 µM)
Cc1c(-c2nnc(-c3ccccc3)o2)sc2ncnc(N3CCCCC3)c12	0.0144 µg/mL (≈ 0.0381 µM)	54.1%	99.2%	0.0125 µg/mL (≈ 0.0331 µM)	11 mm	76.88%	10 mm	0.0132 µg/mL (≈ 0.035 µM)	Dose-dependent effect	22.1 µg/mL (≈ 58.6 µM)	13 mm	14 mm	146 µg/mL (≈ 387 µM)	100 µg/mL	0.0128 µg/mL (≈ 0.0339 µM)
Cc1ccc(-c2nnc(-c3sc4ncnc(N5CCOCC5)c4c3C)o2)cc1	0.0442 µg/mL (≈ 0.112 µM)	49.2%	97.6%	0.0546 µg/mL (≈ 0.139 µM)	18 mm	74.2%	18 mm	0.0132 µg/mL (≈ 0.0335 µM)	Dose-dependent effect	26.6 µg/mL (≈ 67.6 µM)	14 mm	15 mm	86.1 µg/mL (≈ 219 µM)	68 µg/mL	0.0464 µg/mL (≈ 0.118 µM)
Cc1c(C(=O)OCC#CCN2CCN(c3ccc(Br)cc3C#N)CC2)sc2ncnc(N3CCCCC3)c12	0.0112 µg/mL (≈ 0.0189 µM)	51.2%	99.1%	0.0124 µg/mL (≈ 0.0209 µM)	13 mm	76.18%	14 mm	0.0244 µg/mL (≈ 0.0411 µM)	Dose-dependent effect	40.9 µg/mL (≈ 68.8 µM)	15 mm	16 mm	136 µg/mL (≈ 230 µM)	96 µg/mL	0.0186 µg/mL (≈ 0.0313 µM)
GENTAMICIN	0.0242 µg/mL	–	–	0.0422 µg/mL	–	–	–	0.0212 µg/mL	–	–	–	–	–	–	0.0386 µg/mL
